Key:
ALK2 = biological target: T1, ALK2 (Mus musculus, UniProt P37172); experiment: Luciferase reporter gene assay for ALK2 activity (C2C12 BRE-Luc SMAD1/5/8 reporter, BMP6 agonist); type: cell-based; details: BMP6 50 ng/mL
T1 construct: endogenous in cells; host or cells: C2C12-BRE (BRE-Luc reporter line, G418 selection)
T1 sequence (P37172 21-509): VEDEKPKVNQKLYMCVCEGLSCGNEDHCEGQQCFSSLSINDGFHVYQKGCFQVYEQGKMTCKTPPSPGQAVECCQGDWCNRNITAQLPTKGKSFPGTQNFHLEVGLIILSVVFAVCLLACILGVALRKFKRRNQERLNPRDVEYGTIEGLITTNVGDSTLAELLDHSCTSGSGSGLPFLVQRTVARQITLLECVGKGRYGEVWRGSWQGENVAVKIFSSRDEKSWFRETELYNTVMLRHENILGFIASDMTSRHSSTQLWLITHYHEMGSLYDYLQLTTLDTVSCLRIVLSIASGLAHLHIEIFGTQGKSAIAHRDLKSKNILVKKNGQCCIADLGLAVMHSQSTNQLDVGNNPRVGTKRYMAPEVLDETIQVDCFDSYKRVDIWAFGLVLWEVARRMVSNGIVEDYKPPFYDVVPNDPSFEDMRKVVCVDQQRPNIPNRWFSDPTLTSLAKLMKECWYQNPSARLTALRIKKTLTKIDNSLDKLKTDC
Outline: (§1)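 TGFβ activity was measured in HEK293T SBE-Luc cells stimulated with 5 ng/mL TGFβ, at compound 10000-30 nM final. ALK2 activity was measured in C2C12 BRE-Luc cells stimulated with 50 ng/mL BMP6, at compound 1000-0.3 nM final. Compound was preincubated 45 min in 2% FBS medium; after ≥18 h agonist exposure, luminescence was read and inhibition expressed as % signal loss versus background-subtracted agonist controls.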

ALK4 = biological target: T2, ALK4 (Homo sapiens, UniProt P36896); experiment: TR-FRET enzymatic assay, ALK4 kinase, 1536-well; type: biochemical; details: for IC50: 10 nM ALK, Ulight topo II substrate 50 nM, ATP 10 uM (Table 1); for ALK4 Span: span of the concentration-response curve
T2 construct: purchased Life technology (Fredrick, Md.) and/or CARNA BIOSCIENCES Inc. (Kobe, Japan)
T2 sequence (P36896 24-505): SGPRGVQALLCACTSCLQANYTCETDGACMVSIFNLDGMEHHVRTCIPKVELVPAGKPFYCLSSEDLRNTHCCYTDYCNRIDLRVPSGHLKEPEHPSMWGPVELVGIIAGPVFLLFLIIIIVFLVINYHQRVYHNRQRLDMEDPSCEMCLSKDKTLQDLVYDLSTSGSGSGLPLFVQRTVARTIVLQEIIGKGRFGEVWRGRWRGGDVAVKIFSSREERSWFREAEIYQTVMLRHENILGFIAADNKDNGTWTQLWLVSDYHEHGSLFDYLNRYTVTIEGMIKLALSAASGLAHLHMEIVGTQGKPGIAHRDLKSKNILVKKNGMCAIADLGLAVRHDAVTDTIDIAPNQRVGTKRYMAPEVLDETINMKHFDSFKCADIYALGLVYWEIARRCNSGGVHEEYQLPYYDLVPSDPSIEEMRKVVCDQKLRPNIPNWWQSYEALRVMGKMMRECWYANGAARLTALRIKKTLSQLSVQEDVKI
Description: We have developed six ALK kinase enzyme assays for determination of compound activities on ALK1, ALK2, ALK3, ALK4, ALK5 and ALK6. For the assay development, we had tested a number of substrates and assay conditions that led to the final optimized assay protocols with good assay windows with signal to basal (S/B) ratios above 20 fold for all six ALK assays (FIG. 1). In our knowledge, these ALK kinase assays have not been reported elsewhere.
ALK1 and ALK2-ALK6 were obtained from Life technology (Fredrick, Md.) and CARNA BIOSCIENCES Inc. (Kobe, Japan). Ulight-DNA Topoisomerase 2 alpha (Thr-1342) peptide and Europium anti-phospho-DNA Topoisomerase 2 alpha (Thr-1342) antibody was from Perkin Elmer Inc. The kinase buffer was composed of 50 mM HEPES pH7.0, 10 mM MgCl2, 3 mM MnCl2, 0.005% Tween-20 and 2 mM DTT. The compound plates and the white solid MB assay plates were purchased from Greiner Bio-one (Monroe, N.C.).
The binding of Eu-anti-phospho-peptide antibody to the phosphorylated Ulight peptide substrate bring both Eu donor and Ulight acceptor dye into close proximity. Upon excitation at 320-340 nm, the emission energy from Eu donor is transferred to Ulight acceptor dye that will generate light at 665 nm. The intensity light emission is proportional to the level of the peptide phosphorylation by ALKs. The assay was optimized and performed in 1536 plate (Table 1). Briefly, the ALKs enzymatic assay was initiated by dispense 2.5 ul enzyme with a final concentration at 10 nM prepared in 1× kinase reaction buffer. The assay plate was then added with compounds with the Pintool station (23 nl/well compound dilutions in DMSO solution) that was followed by incubation at room temperature for 10 minutes. Then 2.5 ul/well substrate was added in which 50 nM peptide substrate mixed with 10 uM, 100 uM or 1 mM ATP (final concentration). The assay plate was incubated at room temperature for 60 minutes and the kinase reaction was stopped by addition of 5 ul/well of 4 nM Eu-anti-phospho-peptide antibody with 12 mM EDTA prepared in 1× detection buffer. The assay plate was measured in an EnVision plate reader (Perkin Elmer) in the TR-FRET detection mode (excitation at 340 nm and emission at 665 nm).

TGFβ = experiment: Luciferase reporter gene assay for TGFβ activity (HEK293T SBE-Luc SMAD2/3 reporter, TGFβ agonist); type: cell-based; details: Homo sapiens, HEK-293T, TGFβ 5 ng/mL
Outline: as §1

| Structure (SMILES) | IC50 (ALK2) [µM] | IC50 (ALK4) [nM] | ALK4 Span (ALK4) | IC50 (TGFβ) [µM] |
| --- | --- | --- | --- | --- |
| Cc1cc(-c2cnn3cc(N4CCC(N5CCN(C)CC5)CC4)cnc23)c2ccccc2n1 [Compound 8] | 0.005 | 994 | 96.6 | 0.022 |
| Cc1cc(-c2cnn3cc(N4CCC(N5CCOCC5)CC4)cnc23)c2ccccc2n1 [Compound 11] | 0.054 | 1030 | 100.0 | 0.055 |
| COc1cc2c(-c3cnn4cc(N5CCC(N6CCN(C)CC6)CC5)cnc34)ccnc2cc1F [Compound 15, 7-fluoro-6-methoxy-4-(6-(4-(4-methylpiperazin-1-yl)piperidin-1-yl)pyrazolo[1,5-a]pyrimidin-3-yl)quinoline] | 0.019 | 4210 | 101 | 0.284 |
| Cc1cc(-c2cnn3cc(N4CCC(N5CCNCC5)CC4)cnc23)c2ccccc2n1 [Compound 34] | 0.037 | 2030 | 101.1 | 0.027 |

From patent US20230000869A1, “NOVEL ALK2 INHIBITORS AND METHODS FOR INHIBITING BMP SIGNALING” (The Brigham and Women's Hospital, Inc., priority 2017, published 2023)
